From PubChem BioAssay (NCI)
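Step 1: Grow cells in 96-well plates. Step 2: Expose to compound for 48 hours at 5 concentrations. Step 3: Interpolate endpoints linearly; if unreached, use highest concentration. The concentration for 50% growth inhibition is given as GI50. At the TGI there is no net growth.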

Key:
Experiment in all cases: DTP human tumour cell line panel, 48 h; in the data active = GI50 below about 0.43 µM; inactive = the rest
[1] = tested on: M14 melanoma
[2] = tested on: CCRF-CEM leukemia
[3] = tested on: SW-620 colon
[4] = tested on: HL-60(TB) leukemia
[5] = tested on: SN12C renal
[6] = tested on: 786-0 renal
[7] = tested on: SNB-19 CNS
[8] = tested on: TK-10 renal
[9] = tested on: IGROV1 ovarian
[10] = tested on: MCF7 breast
[11] = tested on: SK-MEL-28 melanoma
[12] = tested on: OVCAR-3 ovarian
[13] = tested on: EKVX NSCLC
[14] = tested on: A549 NSCLC
[15] = tested on: UACC-62 melanoma
[16] = tested on: PC-3 prostate
[17] = tested on: SF-295 CNS
[18] = tested on: NCI/ADR-RES ovarian
[19] = tested on: MDA-MB-435
[20] = tested on: OVCAR-8 ovarian
[21] = tested on: LOX IMVI melanoma
[22] = tested on: DU-145 prostate
[23] = tested on: NCI-H522 lung
[24] = tested on: NCI-H460 lung
[25] = tested on: MDA-MB-231 breast
[26] = tested on: HOP-92 NSCLC
[27] = tested on: SF-539 CNS
[28] = tested on: HOP-62 NSCLC
[29] = tested on: T-47D breast
[30] = tested on: HT29 colon
[31] = tested on: HCT-116 colon
[32] = tested on: SF-268 CNS
[33] = tested on: KM12 colon
[34] = tested on: OVCAR-5 ovarian
[35] = tested on: SK-MEL-5 melanoma
[36] = tested on: UO-31 renal
[37] = tested on: OVCAR-4 ovarian
[38] = tested on: SR leukemia
[39] = tested on: SK-MEL-2 melanoma
[40] = tested on: A498 renal
[41] = tested on: HS 578T breast
[42] = tested on: SNB-75 CNS
[43] = tested on: MALME-3M melanoma
[44] = tested on: RXF 393 renal
[45] = tested on: U251 CNS
[46] = tested on: HCT-15 colon
[47] = tested on: NCI-H23 lung
[48] = tested on: NCI-H226 lung
[49] = tested on: RPMI-8226 leukemia
[50] = tested on: COLO 205 colon
[51] = tested on: ACHN renal
[52] = tested on: MOLT-4 leukemia
[53] = tested on: K-562 leukemia
[54] = tested on: UACC-257 melanoma
[55] = tested on: CAKI-1 renal
[56] = tested on: SK-OV-3 ovarian
[57] = tested on: BT-549 breast
[58] = tested on: HCC-2998 colon

O=C(NCC1CC1)c1ccc(-c2cccc(C(=O)NC3CC3)c2)cc1
inactive: GI50 [1] > 25000 nM | GI50 [2] > 25000 nM | GI50 [3] > 25000 nM | GI50 [4] > 25000 nM | GI50 [5] > 25000 nM | GI50 [6] > 25000 nM | GI50 [7] > 25000 nM | GI50 [8] > 25000 nM | GI50 [9] > 25000 nM | GI50 [10] > 25000 nM | GI50 [11] > 25000 nM | GI50 [12] > 25000 nM | GI50 [13] > 25000 nM | GI50 [14] > 25000 nM | GI50 [15] > 25000 nM | GI50 [16] > 25000 nM | GI50 [17] > 25000 nM | GI50 [18] > 25000 nM | GI50 [19] > 25000 nM | GI50 [20] > 25000 nM | GI50 [21] > 25000 nM | GI50 [22] > 25000 nM | GI50 [23] > 25000 nM | GI50 [24] > 25000 nM | GI50 [25] > 25000 nM | GI50 [26] 6660 nM | GI50 [27] > 25000 nM | GI50 [28] > 25000 nM | GI50 [29] > 25000 nM | GI50 [30] > 25000 nM | GI50 [31] > 25000 nM | GI50 [32] > 25000 nM | GI50 [33] > 25000 nM | GI50 [34] > 25000 nM | GI50 [35] > 25000 nM | GI50 [36] > 25000 nM | GI50 [37] > 25000 nM | GI50 [38] > 23300 nM | GI50 [39] > 25000 nM | GI50 [40] > 15800 nM | GI50 [41] > 25000 nM | GI50 [42] > 25000 nM | GI50 [43] > 25000 nM | GI50 [44] > 25000 nM | GI50 [45] > 25000 nM | GI50 [46] > 25000 nM | GI50 [47] > 25000 nM | GI50 [48] > 25000 nM | GI50 [49] > 25000 nM | GI50 [50] > 25000 nM | GI50 [51] > 25000 nM | GI50 [52] > 25000 nM | GI50 [53] > 25000 nM | GI50 [54] > 25000 nM | GI50 [55] > 25000 nM | GI50 [56] > 25000 nM | GI50 [57] > 25000 nM | GI50 [58] > 25000 nM
> 25000 nM: TGI [1] | TGI [2] | TGI [3] | TGI [4] | TGI [5] | TGI [6] | TGI [7] | TGI [8] | TGI [9] | TGI [10] | TGI [11] | TGI [12] | TGI [13] | TGI [14] | TGI [15] | TGI [16] | TGI [17] | TGI [18] | TGI [19] | TGI [20] | TGI [21] | TGI [22] | TGI [23] | TGI [24] | TGI [25] | TGI [26] | TGI [27] | TGI [28] | TGI [29] | TGI [30] | TGI [31] | TGI [32] | TGI [33] | TGI [34] | TGI [35] | TGI [36] | TGI [37] | TGI [38] | TGI [39] | TGI [40] | TGI [41] | TGI [42] | TGI [43] | TGI [44] | TGI [45] | TGI [46] | TGI [47] | TGI [48] | TGI [49] | TGI [50] | TGI [51] | TGI [52] | TGI [53] | TGI [54] | TGI [55] | TGI [56] | TGI [57] | TGI [58]

Cc1ccc2cnc(N)c(C#Cc3cc(C(=O)Nc4ccc(CN5CCN(C)CC5)c(C(F)(F)F)c4)cnc3C)c2c1
36700 nM: TGI [29]
1740 nM: TGI [48]
1570 nM: TGI [40]
8460 nM: TGI [58]
1010 nM: TGI [19]
1080 nM: TGI [15]
1480 nM: TGI [8] | TGI [54]
1360 nM: TGI [11] | TGI [23]
2490 nM: TGI [35]
1160 nM: TGI [1] | TGI [50]
1490 nM: TGI [10] | TGI [34]
inactive: GI50 [2] 917 nM | GI50 [4] 1730 nM | GI50 [6] 809 nM | GI50 [7] 891 nM | GI50 [8] 731 nM | GI50 [10] 498 nM | GI50 [11] 609 nM | GI50 [12] 670 nM | GI50 [13] 679 nM | GI50 [16] 734 nM | GI50 [17] 771 nM | GI50 [18] 1050 nM | GI50 [20] 1110 nM | GI50 [22] 531 nM | GI50 [23] 588 nM | GI50 [24] 604 nM | GI50 [27] 664 nM | GI50 [28] 887 nM | GI50 [29] 9230 nM | GI50 [31] 513 nM | GI50 [32] 559 nM | GI50 [34] 688 nM | GI50 [35] 1080 nM | GI50 [36] 621 nM | GI50 [37] 436 nM | GI50 [39] 761 nM | GI50 [40] 837 nM | GI50 [41] 901 nM | GI50 [42] 756 nM | GI50 [44] 676 nM | GI50 [45] 803 nM | GI50 [47] 727 nM | GI50 [48] 538 nM | GI50 [49] 1010 nM | GI50 [51] 449 nM | GI50 [54] 651 nM | GI50 [55] 476 nM | GI50 [56] 1610 nM | GI50 [57] 1940 nM | GI50 [58] 1590 nM
1260 nM: TGI [53]
808 nM: TGI [21]
1070 nM: TGI [3]
1890 nM: TGI [7]
4190 nM: TGI [56]
8360 nM: TGI [37]
1730 nM: TGI [39]
1820 nM: TGI [47]
active: GI50 [1] 334 nM | GI50 [3] 344 nM | GI50 [5] 317 nM | GI50 [9] 128 nM | GI50 [15] 234 nM | GI50 [19] 262 nM | GI50 [21] 183 nM | GI50 [25] 290 nM | GI50 [26] 217 nM | GI50 [30] 139 nM | GI50 [33] 5 nM | GI50 [38] 390 nM | GI50 [43] 146 nM | GI50 [46] 385 nM | GI50 [50] 296 nM | GI50 [53] 5 nM
1340 nM: TGI [24]
2660 nM: TGI [12]
1270 nM: TGI [32]
1680 nM: TGI [6]
2760 nM: TGI [28] | TGI [41]
1060 nM: TGI [5] | TGI [25] | TGI [51]
1560 nM: TGI [16]
712 nM: TGI [9]
1750 nM: TGI [17]
1300 nM: TGI [36]
776 nM: TGI [30]
1170 nM: TGI [46]
1140 nM: TGI [22]
1530 nM: TGI [13]
1100 nM: TGI [55]
1390 nM: TGI [31]
2900 nM: TGI [18]
2850 nM: TGI [2]
1640 nM: TGI [26]
1610 nM: TGI [38] | TGI [42]
1020 nM: TGI [33]
631 nM: TGI [43]
6580 nM: TGI [4]
2860 nM: TGI [49]
1320 nM: TGI [27]
6230 nM: TGI [57]
3850 nM: TGI [20]
1350 nM: TGI [44]
1870 nM: TGI [45]
